Laboratory results taken from PubChem BioAssay (NCI).
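How tested: cells in 96-well plates exposed to compound for 48 hours at five concentrations. TGI marks complete inhibition of growth.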

Tests used:
Test in all cases: DTP human tumour cell line panel, 48 h
ACHN renal = tested on: ACHN renal
MCF7 breast = tested on: MCF7 breast
SF-295 CNS = tested on: SF-295 CNS
RXF 393 renal = tested on: RXF 393 renal
K-562 leukemia = tested on: K-562 leukemia
HCT-15 colon = tested on: HCT-15 colon
MDA-MB-231 breast = tested on: MDA-MB-231 breast
UACC-62 melanoma = tested on: UACC-62 melanoma
HOP-62 NSCLC = tested on: HOP-62 NSCLC
NCI/ADR-RES ovarian = tested on: NCI/ADR-RES ovarian
T-47D breast = tested on: T-47D breast
786-0 renal = tested on: 786-0 renal
SR leukemia = tested on: SR leukemia
MDA-MB-435 = tested on: MDA-MB-435
KM12 colon = tested on: KM12 colon

`O=C(CCc1ccc(O)cc1)NCCCNC(=O)CCc1ccc(O)cc1` showed a TGI (ACHN renal) of over 100 µM, a TGI (MCF7 breast) of over 100 µM and a TGI (SF-295 CNS) of over 100 µM. For the same compound, the TGI (RXF 393 renal) was over 100 µM, the TGI (K-562 leukemia) was over 100 µM and the TGI (HCT-15 colon) was over 100 µM. For the same compound, the TGI (MDA-MB-231 breast) was over 100 µM, the TGI (UACC-62 melanoma) was over 100 µM and the TGI (HOP-62 NSCLC) was over 100 µM. The TGI (NCI/ADR-RES ovarian) was over 100 µM, the TGI (T-47D breast) was over 100 µM and the TGI (786-0 renal) was over 100 µM. It also gave a TGI (SR leukemia) of over 100 µM, a TGI (MDA-MB-435) of over 100 µM and a TGI (KM12 colon) of over 100 µM.
Compound `NC(N)=NS(=O)(=O)c1ccc(NC(=O)c2ccc3nc4ccccc4c(N)c3c2)cc1` has a TGI (ACHN renal) of over 100 µM, a TGI (MCF7 breast) of over 100 µM and a TGI (SF-295 CNS) of over 100 µM. The TGI (RXF 393 renal) was over 100 µM, the TGI (K-562 leukemia) was over 100 µM and the TGI (HCT-15 colon) was over 100 µM. It also gave a TGI (MDA-MB-231 breast) of over 100 µM, a TGI (UACC-62 melanoma) of over 100 µM and a TGI (HOP-62 NSCLC) of over 100 µM. The TGI (NCI/ADR-RES ovarian) was over 100 µM, the TGI (T-47D breast) was over 100 µM and the TGI (786-0 renal) was over 100 µM. For the same compound, the TGI (SR leukemia) was over 100 µM, the TGI (MDA-MB-435) was over 100 µM and the TGI (KM12 colon) was over 100 µM.
With `CC(=O)c1ccccc1NS(=O)(=O)c1ccc2nc(C)n(NS(=O)(=O)c3ccccc3C(C)=O)c(=O)c2c1` the TGI (ACHN renal) was over 100 µM, the TGI (MCF7 breast) was over 100 µM and the TGI (SF-295 CNS) was over 100 µM. It also gave a TGI (RXF 393 renal) of over 100 µM, a TGI (K-562 leukemia) of over 100 µM and a TGI (HCT-15 colon) of over 100 µM. For the same compound, the TGI (MDA-MB-231 breast) was over 100 µM, the TGI (UACC-62 melanoma) was over 100 µM and the TGI (HOP-62 NSCLC) was over 100 µM. It also gave a TGI (NCI/ADR-RES ovarian) of over 100 µM, a TGI (T-47D breast) of over 100 µM and a TGI (786-0 renal) of over 100 µM. The TGI (SR leukemia) was over 100 µM, the TGI (MDA-MB-435) was over 100 µM and the TGI (KM12 colon) was over 100 µM.
`CCOC(=O)N1N(c2ccccc2)C(=O)C1(c1ccccc1)c1ccccc1` gave a TGI (ACHN renal) of over 100 µM, a TGI (MCF7 breast) of over 100 µM and a TGI (SF-295 CNS) of over 100 µM. It also gave a TGI (RXF 393 renal) of over 100 µM, a TGI (K-562 leukemia) of over 100 µM and a TGI (HCT-15 colon) of over 100 µM. The TGI (MDA-MB-231 breast) was over 100 µM, the TGI (UACC-62 melanoma) was over 100 µM and the TGI (HOP-62 NSCLC) was 46 µM. The TGI (NCI/ADR-RES ovarian) was over 100 µM, the TGI (T-47D breast) was over 100 µM and the TGI (786-0 renal) was over 100 µM. For the same compound, the TGI (SR leukemia) was over 100 µM, the TGI (MDA-MB-435) was over 100 µM and the TGI (KM12 colon) was over 100 µM.
In the case of `C=CCn1c(-c2ccc(Cl)cc2Cl)csc1=Nc1c(C)n(C)n(-c2ccccc2)c1=O`, the TGI (ACHN renal) is reported as 27.7 µM, the TGI (MCF7 breast) is reported as 25.4 µM and the TGI (SF-295 CNS) is reported as 21.2 µM. It also gave a TGI (RXF 393 renal) of 32.1 µM, a TGI (K-562 leukemia) of 8.38 µM and a TGI (HCT-15 colon) of 30 µM. For the same compound, the TGI (MDA-MB-231 breast) was 30 µM, the TGI (UACC-62 melanoma) was 22.5 µM and the TGI (HOP-62 NSCLC) was 29.7 µM. It also gave a TGI (NCI/ADR-RES ovarian) of 34.2 µM, a TGI (T-47D breast) of 16.6 µM and a TGI (786-0 renal) of 26.7 µM. For the same compound, the TGI (SR leukemia) was 21.9 µM, the TGI (MDA-MB-435) was 25.2 µM and the TGI (KM12 colon) was 29.3 µM.
With `CCCCN1C(=O)CS/C1=N/Nc1nc2c([nH]1)c(=O)n(C)c(=O)n2C` the TGI (ACHN renal) was over 100 µM, the TGI (MCF7 breast) was 31.3 µM and the TGI (SF-295 CNS) was 53.1 µM. For the same compound, the TGI (RXF 393 renal) was over 100 µM, the TGI (K-562 leukemia) was over 100 µM and the TGI (HCT-15 colon) was over 100 µM. For the same compound, the TGI (MDA-MB-231 breast) was over 100 µM, the TGI (UACC-62 melanoma) was over 100 µM and the TGI (HOP-62 NSCLC) was over 100 µM. The TGI (NCI/ADR-RES ovarian) was over 100 µM, the TGI (T-47D breast) was over 100 µM and the TGI (786-0 renal) was 41.7 µM. The TGI (SR leukemia) was 38.1 µM, the TGI (MDA-MB-435) was 40.7 µM and the TGI (KM12 colon) was over 100 µM.
In the case of `CC(=O)C1=C(C)N(c2ccccc2)C2(O)C=CC(=O)C3=C(O)c4ccccc4C(=O)C312` (stereo not given), the TGI (ACHN renal) is reported as 31.2 µM, the TGI (MCF7 breast) is reported as over 100 µM and the TGI (SF-295 CNS) is reported as 38.5 µM. It also gave a TGI (RXF 393 renal) of 36.6 µM, a TGI (K-562 leukemia) of over 100 µM and a TGI (HCT-15 colon) of over 100 µM. It also gave a TGI (MDA-MB-231 breast) of 51 µM, a TGI (UACC-62 melanoma) of 34.1 µM and a TGI (HOP-62 NSCLC) of 72.1 µM. The TGI (NCI/ADR-RES ovarian) was 37.5 µM, the TGI (T-47D breast) was 76.8 µM and the TGI (786-0 renal) was over 100 µM. The TGI (SR leukemia) was over 100 µM, the TGI (MDA-MB-435) was 5.19 µM and the TGI (KM12 colon) was 40.3 µM.
In the case of `O=C1C2CC=CCC2C(=O)N1n1c(Cc2ccccc2)n[nH]c1=O` (stereo not given), the TGI (ACHN renal) is reported as over 100 µM, the TGI (MCF7 breast) is reported as over 100 µM and the TGI (SF-295 CNS) is reported as over 100 µM. The TGI (RXF 393 renal) was over 100 µM, the TGI (K-562 leukemia) was over 100 µM and the TGI (HCT-15 colon) was over 100 µM. The TGI (MDA-MB-231 breast) was over 100 µM, the TGI (UACC-62 melanoma) was over 100 µM and the TGI (HOP-62 NSCLC) was over 100 µM. It also gave a TGI (NCI/ADR-RES ovarian) of over 100 µM, a TGI (T-47D breast) of over 100 µM and a TGI (786-0 renal) of over 100 µM. It also gave a TGI (SR leukemia) of over 100 µM, a TGI (MDA-MB-435) of over 100 µM and a TGI (KM12 colon) of over 100 µM.
